# Laboratory results published in a melting point compilation (Tetko et al.; mined from patent text by program, amines drawn as free bases though some values may be those of a salt).
row,Compound,melting point
1,COc1cc(OCCCN2CCC(c3n[nH]c4cc(F)ccc34)CC2)ccc1C(C)=O,202 to 204 °C
2,Cc1cccc(NC(=O)NCC(=O)N(CC(=O)N2CCCc3ccccc32)c2ccccc2)c1,167 °C
3,CCc1nc2c(N)nc3cc(CCC(=O)N4CCOCC4)ccc3c2n1CC(C)(C)O,237 to 239 °C
4,CCCCCc1cc2c(nc(O)n2[C@@H](C)c2ccccc2)c(N)n1,147 to 148 °C
5,COc1ccc(S(=O)(=O)C2(C(=O)O)CCN(Cc3ccc(C)cc3)CC2)cc1,176 to 177 °C
6,COc1ccc(CCc2ccc(N)cc2)cc1OC,115 to 116 °C
7,O=[N+]([O-])c1ccc(O)c(COCCO)c1,132 °C
8,Cc1oc(-c2ccccc2)nc1COc1ccc(OCc2ncccc2CC#N)cc1,134 to 135 °C
9,Fc1ccc(C2OC3(CCNCC3)N3CCCCC23)cc1 (stereo not given),112 to 114 °C
10,COc1cc(OC)c(-c2cc3ccccc3[nH]2)cc1C=CC(=O)c1ccc(S(=O)(=O)NCC(=O)O)cc1,189 to 190 °C
11,O=C(O)CCC(O)c1ccc(CCNS(=O)(=O)c2ccc(Cl)cc2)cc1 (stereo not given),191 °C
12,CCOC(=O)C(C#N)(CCCN(C)CCc1ccc(OC)c(OC)c1)c1ccc(OC)c(OC)c1 (stereo not given),77 to 78 °C
13,CCCCCCCCCCC(=O)OC1CC(C)(C)N(CC#N)C(C)(C)C1,54 °C
14,O=C(O)CCc1cccc(CCc2nc(-c3ccccc3)c(-c3ccccc3)o2)c1,119 to 120 °C
15,CC(C)Oc1ccc(CCCCOc2cc(CCC(=O)O)n(C(C)C)n2)c(Oc2ncc(C(F)(F)F)cc2Cl)c1,99.5 to 100 °C
16,O=C([C@@H](Cc1ccc(Cl)cc1)NC1CCOCC1)N1CCC(Cn2cncn2)(C2CCCCC2)CC1,75 °C
17,CN(C)S(=O)(=O)NC(c1ccccc1)P(=O)(Oc1ccccc1)Oc1ccccc1 (stereo not given),193 to 196 °C
18,CCN1C(=O)C(C)(C)C(=O)N(C)c2cc(OCCCn3cc(I)c(=O)c4ccccc43)ccc21,97 to 106 °C
19,CC#CC(C)(C)N(C)C(=O)C(CC)Oc1cncc(Cl)c1 (stereo not given),67 to 68 °C
20,C#Cc1cnc(OCCOc2ncnc(NS(=O)(=O)c3ccc(C(C)(C)C)cc3)c2-c2ccc(C)cc2)nc1,207 to 210 °C
21,c1ccc(Oc2ccc(C3(Cn4cncn4)OCCO3)cc2)cc1,100 to 102 °C
22,COc1cc2c(cc1OC)C(COCCN1CCCCC1)OCCC2 (stereo not given),124 °C
23,COc1ccc(-n2nc(Cl)cc2-c2ccc(OCCNS(C)(=O)=O)cc2)cc1,117 to 119 °C
24,CC(C)(C)OC(=O)N[C@@H](Cc1ccccc1)C(=O)NCCC(=O)OCc1ccccc1,93 to 96 °C
25,Oc1cncc2sccc12,206 °C

row,Compound,melting point
1,O=Cc1ccc2noc(-c3cccc(Cl)c3)c2c1,148 °C
2,CCCCc1nc(C(C)(C)O)c(C(=O)O)n1Cc1ccc(-c2ccccc2C(=O)C(=O)O)cc1,165 to 170 °C
3,COC(=O)c1ccc(NC(=O)[C@H](Cc2ccccc2)NC(=O)OC(C)(C)C)cc1,173 to 175 °C
4,C[C@@H]1Cc2cc(N3C[C@H](C(N)=O)OC3=O)ccc2N1C=O,228 to 230 °C
5,CC(=C[N+](=O)[O-])c1ccccc1O,110 to 112 °C
6,CC(C)(C)c1ccc(C(O)CCCN2CCC(C3(O)c4ccccc4COc4ccccc43)CC2)cc1 (stereo not given),135 to 137 °C
7,O=C1CCNc2nc(Br)ccc21,196 to 197 °C
8,N=C(NCCNC(c1ccccc1)(c1ccccc1)c1ccccc1)N[N+](=O)[O-],217 to 219 °C
9,Cc1cn(Cc2ccc(F)cc2)cc1C(=O)CC(=O)C(=O)O,162 to 163 °C
10,O=C1CC(C(=O)NC(Cc2ccc(C(F)(F)F)cc2)C(O)c2ccc(F)cc2)c2ccccc21 (racemic),237 to 238 °C
11,O=C(COC(=O)Cc1ccccc1Nc1cc2c(cc1Cl)CCC2)OCc1ccccc1,97 to 100 °C
12,Cc1nc(NC(=O)NS(=O)(=O)C(Cl)C(C)Cl)nc(C)c1Cl (stereo not given),161 to 162 °C
13,O=C(Nc1ccc2c(c1)C=CC2)C(F)(F)F,132 °C
14,COc1nc(N(C)C)nc(CCCCCCCCCCO)c1O,104 to 105 °C
15,CC1=C(C)C(=O)N(c2ccc(C)c(NS(=O)(=O)C(F)(F)F)c2)C1=O,152 to 154 °C
16,COC(=O)C1=C(C)NC(C)=C(C(=O)OCCCCCCOc2cc(-c3ccc(OC)cc3)[nH]n2)C1c1cccc(Cl)c1Cl (stereo not given),146 to 148 °C
17,CN(C)C(=O)c1ccc(-c2ccc(Cl)cc2)o1,101 to 102 °C
18,Cc1cccc(Sc2c(O)c3ccc(Cl)cc3[nH]c2=O)c1,234 to 236 °C
19,COCCOc1ccc(C=O)c2cc3ccccc3cc12,72 to 74 °C
20,CCCc1cc(CCCCC(=O)O)ccc1OC,84 °C
21,Fc1ccc2c(c1)nc(/C=C/C1CCCCC1)n2-c1ccccn1,109 to 110 °C
22,Nc1nc(-c2cc(Cl)ccc2Cl)nc(N2CC(O)C2)n1,256 to 257 °C
23,O=C(c1ccccc1)n1c(=O)[nH]cc(F)c1=O,170 °C
24,CC(C)(C)OC(=O)NC1Cc2ccccc2C1Oc1ccccc1 (stereo not given),99 to 101 °C
25,Cc1cc(-c2nc3ccccc3c(=O)n2-c2ccc(F)cc2)cc(C)c1OCCO,95 to 97 °C

row,Compound,melting point
1,Clc1cccc(Nc2nccc(Cl)n2)c1,112 to 114 °C
2,O=C(O)CSC1CCCc2cc3c(cc21)OCO3 (stereo not given),138 to 139 °C
3,C=CCc1c2c(cc3c(=O)cc(C(=O)O)oc13)CCCC2,235 to 237 °C
4,COc1ccc(Nc2nccc(-c3ccc(N4CCNCC4)nc3)n2)cn1,160 to 165 °C
5,C=C(C)C(=O)NNc1ccnc2c(NC(=O)c3c(Cl)cccc3Cl)cccc12,277 to 280 °C
6,CN(Cc1ccccc1)C(=O)Nc1cc(C(C)(C)C)on1,107 to 108 °C
7,OCC1OC(n2cnc3c(NCC(c4ccccc4)c4ccc(F)cc4)nc(Cl)nc32)C(O)C1O (stereo not given),120 to 123 °C
8,c1cc(OCCCNCC2COc3cc4c(cc3O2)OCO4)c2cccnc2c1 (stereo not given),140 to 145 °C
9,CCCC1(C)C(=O)NC(=O)N1c1ccc(C)cc1 (stereo not given),158 °C
10,CS(=O)(=O)Nc1ccc2c(c1)CCC1(CCC(N3CCc4ccccc4C3)CC1)O2 (stereo not given),183 to 185 °C
11,OC1(CNCc2ccccc2)CCN(CCCc2c[nH]c3ccc(-n4cnnc4)cc23)CC1,> 60 °C
12,O=Cc1cn(Cc2cc(OCc3ccccc3)cc(OCc3ccccc3)c2)cc1-c1ccccc1,117 to 118 °C
13,NC(=O)/C=C1/c2cc(F)ccc2C(O)C1O (stereo not given),212 to 220 °C
14,"COC(=O)C1CC(=O)C(CC(=O)O)C1C[N+](=O)[O-] (single isomer, unassigned; (-))",111 to 112 °C
15,CS(=O)(=O)N1CC(=O)c2ccsc2C1,120 °C
16,CCCn1c(=O)[nH]c(Cl)c(-c2ccccc2)c1=O,230 to 231 °C
17,CN1C2CCC1CC(NC(=O)OC(C)(C)C)C2 (stereo not given),79 to 81 °C
18,CC(C)(C)OC(=O)CN1C(=O)[C@@H](N)[C@H](c2ccccc2)Sc2ccccc21 (relative stereo),172 to 174 °C
19,CS(=O)(=O)Nc1ccc(N)cn1,199 to 202 °C
20,Cc1c(-c2ccc3cn[nH]c3c2)cc(Nc2ccc(N3CCOCC3)cn2)c2nccn12,160 to 164 °C
21,CCCCCCCCCCCCCC/C=C\CNC(=O)OC(C)(C)C,42 to 46 °C
22,N=C(N)Nc1ncc(CSCCN)s1,150 to 153 °C
23,CNC(=O)Cn1c(Cl)ccc1Cl,193 to 194 °C
24,CCC1(C)CC(S(=O)Cc2c(F)cccc2F)=NO1 (stereo not given),< 30 °C
25,CCCCn1c(=O)c2nn(S(=O)(=O)c3cccc4cccnc34)cc2n(CCCC)c1=O,203 to 205 °C

row,Compound,melting point
1,CC(=O)c1ccc(C(=O)Nc2ccc(C(C)(C)C)cc2)cc1,183 to 184 °C
2,Fc1ccccc1N1CCN(Cc2nc3ccccc3[nH]2)CC1,262 to 264 °C
3,CCOC(=O)c1sc(Oc2ccc(C(C)=O)c(OC)c2)c2c1CCc1cnn(C)c1-2,132 to 133 °C
4,COC(=O)NC(=Nc1cc(OS(=O)(=O)c2cccc(C(F)(F)F)c2)ccc1NC(N)=O)NC(=O)OC,131 °C
5,CN1C(=O)C2C3C=CC(C3)C2(c2ccc3c(c2)OCO3)C1=O (stereo not given),116 to 118 °C
6,CC(=O)OC1(C(N)=O)CCCc2cc(C)cnc21 (stereo not given),205 °C
7,Cc1cc(C(C)N(O)C(N)=O)ccc1OC(C)c1ccccc1 (stereo not given),133 to 135 °C
8,O=c1ccc(S(=O)(=O)c2cc3cccc(Cl)c3[nH]2)n[nH]1,248 to 250 °C
9,CCc1ccc(C(=O)c2c(N)sc3c2CCN(C(=O)OCc2ccccc2)C3)cc1,121 to 123 °C
10,CCOC(=O)c1cn(C(C)(C)C)c2nc(N3CC4CCC(C3)N4C(=O)C(F)(F)F)c(F)cc2c1=O,205 °C
11,CC1OC(=O)N2c3ccc(O)cc3CCC12 (stereo not given),258 to 259 °C
12,O=C(C=C1CCCCN1)c1ccccc1,59 to 60 °C
13,O=C(Nc1nccs1)c1c(C(F)(F)F)nc2c(C(F)(F)F)cccc2c1O,258 °C
14,CC(=O)N1CCN(c2ccc(-c3cnc4[nH]cc(C(=O)N[C@@H](C(=O)N5CC(C#N)C5)C5CC5)c4n3)cc2)CC1,185 to 188 °C
15,Cc1ccc(C=C2C3=C(C=CC2(C)C)CC(C)CN3)cc1 (stereo not given),153 °C
16,COc1ccc2c(c1)OCC(c1ccc(F)cc1)C2c1ccc(OCCN2CCCCC2)cc1 (stereo not given),93.5 to 94.5 °C
17,CCOC(=O)C(=O)Oc1cccc(-c2cn3c(n2)sc2ccccc23)c1,120 to 121 °C
18,CCCCCCCCCCNC(=O)c1cccc([N+](=O)[O-])c1,86 to 88 °C
19,CSc1ccc(-c2nn(Cc3ccc(Cl)cc3Cl)c(=O)cc2-c2ccc(F)cc2)cc1,139 to 140 °C
20,COc1ccc(/C=C(\C#N)c2ccccc2F)cc1OC1CCCC1,70 to 73 °C
21,CC(=O)OCc1ccc(-c2ccccc2)cn1,71 to 72 °C
22,Cc1ccc(C(=O)Nc2ccc(C(=O)CCC(=O)O)cc2)cc1,257 to 258 °C
23,CCNC(=O)c1ccccc1Nc1nc(Nc2cc3c(cc2OC)CC(=O)N(CC)CC3)ncc1Cl,244 to 251 °C
24,CC(=O)CSc1ccc(S(C)(=O)=O)cc1,95 to 97 °C
25,CC(C)(CNc1ccnc2cc(Cl)ccc12)NCc1c(Cl)cccc1Cl,154 to 155 °C
